Source: patent publication US11478460B2, “Diaryl substituted 6,5-fused ring compounds as C5aR inhibitors” (CHEMOCENTRYX, INC., priority 2017, dated 2022)
pIC50: −log10 of the molar value.

Biological target: C5aR (Homo sapiens (Human), UniProt P21730)
Test: Chemotaxis assay using U937 cells (C5aR mediated migration)
Assay type: cell-based
Conditions: read-out: Mig IC50
Method: U937 cells are a monocytic cell line which express C5aR, and are available from ATCC (VA). These cells were cultured as a suspension in RPMI-1640 medium supplemented with 2 mM L-glutamine, 1.5 g/L sodium bicarbonate, 4.5 g/L glucose, 10 mM HEPES, 1 mM sodium pyruvate, and 10% FBS. Cells were grown under 5% CO2/95% air, 100% humidity at 37° C. and subcultured twice weekly at 1:6 (cells were cultured at a density range of 1×10^5 to 2×10^6 cells/mL) and harvested at 1×10^6 cells/mL. Prior to assay, cells are treated overnight with 0.5 mM of cyclic AMP (Sigma, OH) and washed once prior to use. cAMP treated U937 cells can be used in C5aR ligand binding and functional assays.
Optionally, compounds may be further assayed for their ability to inhibit chemotaxis in cells. Chemotaxis assays are performed using 5 μm pore polycarbonate, polyvinylpyrrolidone-coated filters in 96-well chemotaxis chambers (Neuroprobe; Gaithersburg, Md.) using chemotaxis buffer (Hank's balanced salt solution (HBSS) and 1% FBS). C5aR ligands (i.e., C5a, R&D Systems; Minneapolis, Minn.) are use to evaluate compound mediated inhibition of C5aR mediated migration. Other chemokines (i.e., SDF-1α; R&D Systems; Minneapolis, Minn.) are used as specificity controls. The lower chamber is loaded with 29 μl of chemokine (i.e., 0.03 nM C5a) and varying amounts of compound; the top chamber contains 100,000 U937 or neutrophil cells in 20 μl. The chambers are incubated 1.5 hours at 37° C., and the number of cells in the lower chamber quantified either by direct cell counts in five high powered fields per well or by the CyQuant assay (Molecular Probes), a fluorescent dye method that measures nucleic acid content and microscopic observation.
The compounds in Table 1, below, were prepared using the methods described above. Characterization data is provided for each compound listed. Activity is provided as follows for the chemotaxis assay using U937 cells as described herein (Example 12): +, 500 nM<IC50; ++, 50 nM<IC50≤500 nM; +++, 5 nM<IC50≤50 nM; and ++++, IC50≤5 nM.

C5aR, sequence (P21730 whole entry): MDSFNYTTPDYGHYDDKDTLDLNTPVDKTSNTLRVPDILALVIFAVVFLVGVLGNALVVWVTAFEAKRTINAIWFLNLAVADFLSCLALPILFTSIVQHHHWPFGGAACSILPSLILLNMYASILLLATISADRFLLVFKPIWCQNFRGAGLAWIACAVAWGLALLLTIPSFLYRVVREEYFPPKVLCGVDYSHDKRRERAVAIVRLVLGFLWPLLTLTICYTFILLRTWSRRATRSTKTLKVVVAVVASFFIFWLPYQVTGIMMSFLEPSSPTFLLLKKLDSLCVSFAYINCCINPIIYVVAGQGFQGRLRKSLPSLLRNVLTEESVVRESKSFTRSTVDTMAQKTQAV

Compound	pIC50
CCc1cccc(CC)c1-n1nc2c(c1-c1cc(F)c(NC(N)=O)cc1F)CN(Cc1ccc(C(F)(F)F)cc1Cl)CC2 [Example 1.057]	≥ 8.30
CCc1cccc(CC)c1-n1nc2c(c1-c1cc(F)c(NC(N)=O)cc1F)CN(Cc1ccc(C(F)(F)F)cc1OC)CC2 [Example 1.058]	≥ 8.30
CCc1cccc(CC)c1-n1nc2c(c1-c1cc(F)c(NC(N)=O)cc1F)CN(Cc1ccc(C(F)(F)F)cc1C(F)(F)F)C(C)(C)C2 [Example 1.059]	≥ 8.30
Cc1cccc(C)c1-n1nc2c(c1-c1cc(F)c(NC(N)=O)cc1F)CN(Cc1ccc(C(F)(F)F)cc1C(F)(F)F)CC2 [Example 1.060]	7.30 to 8.30
Cc1cccc(C)c1-n1nc2c(c1-c1cc(F)c(NC(N)=O)cc1F)CN(Cc1ccc(Cl)cc1C(F)(F)F)CC2 [Example 1.061]	≥ 8.30
CCc1cccc(CC)c1-n1nc2c(c1-c1cc(F)c(NC(N)=O)cc1F)CN(Cc1c(F)cc(C(F)(F)F)cc1C(F)(F)F)CC2 [Example 1.062]	≥ 8.30
CCc1cccc(CC)c1-n1nc2c(c1-c1cc(F)c(NC(N)=O)cc1F)CN(Cc1ccc(C)cc1C)CC2 [Example 1.063]	≥ 8.30
CCc1cccc(CC)c1-n1nc2c(c1-c1cc(F)c(NC(N)=O)cc1F)CN(Cc1ccc(C(F)(F)F)cc1C)CC2 [Example 1.064]	≥ 8.30
CCc1cccc(CC)c1-n1nc2c(c1-c1cc(F)c(NC(N)=O)cc1F)CN(Cc1ccc(C(F)(F)F)cc1)CC2 [Example 1.065]	≥ 8.30
CCc1cccc(CC)c1-n1nc2c(c1-c1cc(F)c(NC(N)=O)cc1F)CN(Cc1ccc(C(F)(F)F)cc1F)CC2 [Example 1.066]	≥ 8.30
CCc1cccc(CC)c1-n1nc2c(c1-c1cc(F)c(NC(N)=O)cc1F)CN(Cc1ccccc1C(F)(F)F)CC2 [Example 1.067]	≥ 8.30
CCc1cccc(CC)c1-n1nc2c(c1-c1cc(F)c(NC(N)=O)cc1C)CN(Cc1ccc(C(F)(F)F)cc1C(F)(F)F)CC2 [Example 1.068]	≥ 8.30
CCc1cccc(CC)c1-n1nc2c(c1-c1cc(F)c(NC(N)=O)cc1F)CN(Cc1cc(Cl)ccc1C(F)(F)F)CC2 [Example 1.069]	≥ 8.30
CCc1cccc(CC)c1-n1nc2c(c1-c1cc(F)c(NC(N)=O)cc1F)CN(Cc1cc(Cl)ccc1Cl)CC2 [Example 1.070]	≥ 8.30
Cc1cccc(C)c1-n1nc2c(c1-c1cc(F)c(NC(N)=O)cc1F)CN(C(CC(C)(C)O)c1ccccc1)CC2 (stereo not drawn) [Example 1.071]	7.30 to 8.30
CCc1cccc(CC)c1-n1nc2c(c1-c1cc(F)c(NC(N)=O)cc1F)CN(Cc1cnn(CC)c1)CC2 [Example 1.072]	6.30 to 7.30
CCc1cccc(CC)c1-n1nc2c(c1-c1cc(F)c(NC(N)=O)cc1F)CN(Cc1ccc(Cl)cc1Cl)CC2 [Example 1.073]	≥ 8.30
COC(=O)CC(c1ccccc1)N1CCc2nn(-c3c(C)cccc3C)c(-c3cc(F)c(NC(N)=O)cc3F)c2C1 (stereo not drawn) [Example 1.074]	≥ 8.30
CCc1cccc(CC)c1-n1nc2c(c1-c1cc(F)c(NC(N)=O)cc1F)CN(Cc1cn(C)nc1C(F)(F)F)CC2 [Example 1.075]	7.30 to 8.30

Compound	pIC50
CCc1cccc(CC)c1-n1nc2c(c1-c1cc(F)c(NC(N)=O)cc1F)CN(Cc1ccc(Cl)cc1C(F)(F)F)CC2 [Example 1.076]	≥ 8.30
CCc1cccc(CC)c1-n1nc2c(c1-c1cc(F)c(NC(N)=O)cc1F)CN(Cc1ccc(C(F)(F)F)cc1C(F)(F)F)CC2 [Example 1.077]	≥ 8.30
Cc1cccc(C)c1-n1nc2c(c1-c1cc(F)c(NC(N)=O)cc1F)CN(C1(C)CCOCC1)CC2 [Example 1.078]	6.30 to 7.30
CCc1cccc(CC)c1-n1nc2c(c1-c1cc(F)c(NC(N)=O)cc1F)CN(C(CO)c1ccccc1)CC2 (stereo not drawn) [Example 1.079]	7.30 to 8.30
CCc1cccc(CC)c1-n1nc2c(c1-c1cc(F)c(NC(N)=O)cc1F)CN(C(c1ccccc1)C(C)(C)O)CC2 (stereo not drawn) [Example 1.080]	≥ 8.30
CC[C@@H](c1ccccc1)N1CCc2nn(-c3c(C)cccc3C)c(-c3ccc(NC(N)=O)cc3F)c2C1 [Example 1.081]	7.30 to 8.30
CC[C@@H](c1ccccc1)N1CCc2nn(-c3c(C)cccc3C)c(-c3ccc(NC(N)=O)cc3)c2C1 [Example 1.082]	6.30 to 7.30
CC[C@@H](c1ccccc1)N1CCc2nn(-c3c(C)cccc3C)c(-c3ccc(NC(N)=O)c(F)c3)c2C1 [Example 1.083]	7.30 to 8.30
CCc1cccc(CC)c1-n1nc2c(c1-c1cc(F)c(NC(N)=O)cc1F)CN([C@@H](CC)c1ccccc1)CC2 [Example 1.084]	≥ 8.30
Cc1cccc(C)c1-n1nc2c(c1-c1cc(F)c(NC(N)=O)cc1F)CN(C(c1ccccc1)C(C)(C)O)CC2 (stereo not drawn) [Example 1.085]	7.30 to 8.30
Cc1cccc(C)c1-n1nc2c(c1-c1cc(F)c(NC(N)=O)cc1F)CN(CC(C)(C)O)CC2 [Example 1.086]	< 6.30
Cc1cccc(C)c1-n1nc2c(c1-c1cc(F)c(NC(N)=O)cc1F)CN(C(CO)c1ccccc1)CC2 (stereo not drawn) [Example 1.087]	6.30 to 7.30
Cc1cccc(C)c1-n1nc2c(c1-c1cc(F)c(NC(N)=O)cc1F)CN(C(C)(C)CO)CC2 [Example 1.088]	< 6.30
Cc1cccc(C)c1-n1nc2c(c1-c1cc(F)c(NC(N)=O)cc1F)CN(c1ncc(C3CC3)cc1F)CC2 [Example 1.089]	≥ 8.30
CCCC(O)C(C)(C)N1CCc2nn(-c3c(CC)cccc3CC)c(-c3cc(F)c(NC(N)=O)cc3F)c2C1 (stereo not drawn) [Example 1.090]	≥ 8.30
Cc1cccc(C)c1-n1nc2c(c1-c1cc(F)c(NC(N)=O)cc1F)CN(c1ncc(C(F)(F)F)cc1Cl)CC2 [Example 1.091]	≥ 8.30
CC[C@@H](c1ccccc1)N1CCc2nn(-c3c(C)cccc3C)c(-c3cc(F)c(NC(N)=O)cc3F)c2C1 [Example 1.092]	≥ 8.30
Cc1cccc(C)c1-n1nc2c(c1-c1cc(F)c(NC(N)=O)cc1F)CN(c1ccc(C3CC3)cc1Cl)CC2 [Example 1.093]	≥ 8.30
Cc1cccc(C)c1-n1nc2c(c1-c1cc(F)c(NC(N)=O)cc1F)CN(c1cc(C(F)(F)F)ccc1F)CC2 [Example 1.094]	≥ 8.30

Compound	pIC50
Cc1cccc(C)c1-n1nc2c(c1-c1cc(F)c(NC(N)=O)cc1F)CN(c1ccc(Cl)cc1)CC2 [Example 1.095]	≥ 8.30
CCC(c1ccccc1)N1CCc2nn(-c3c(C)cccc3C)c(-c3cc(F)c(NC(N)=O)cc3F)c2C1 (stereo not drawn) [Example 1.096]	≥ 8.30
Cc1cc(-c2c3c(nn2-c2c(C)cccc2C)CCN(c2ncc(Cl)cc2Cl)C3)c(F)cc1NC(N)=O [Example 1.097]	≥ 8.30
Cc1cccc(C)c1-n1nc2c(c1-c1cc(F)c(NC(N)=O)cc1F)CN(c1ccc(C(C)(C)C)cc1Cl)CC2 [Example 1.098]	≥ 8.30
Cc1cccc(C)c1-n1nc2c(c1-c1cc(F)c(NC(N)=O)cc1F)CN(c1ccc(OC(F)(F)F)cc1F)CC2 [Example 1.099]	≥ 8.30
CC[C@H](c1ccccc1)N1CCc2nn(-c3c(C)cccc3C)c(-c3cc(F)c(NC(N)=O)cc3F)c2C1 [Example 1.100]	≥ 8.30
Cc1cccc(C)c1-n1nc2c(c1-c1cc(F)c(NC(N)=O)cc1F)CN(c1ncc(Cl)cc1C(N)=O)CC2 [Example 1.101]	< 6.30
Cc1cccc(C)c1-n1nc2c(c1-c1cc(F)c(NC(N)=O)cc1F)CN(c1ncc(Cl)cc1C#N)CC2 [Example 1.102]	≥ 8.30
Cc1cccc(C)c1-n1nc2c(c1-c1cc(F)c(NC(N)=O)cc1F)CN(c1ccccc1Cl)CC2 [Example 1.103]	≥ 8.30
Cc1cccc(C)c1-n1nc2c(c1-c1cc(F)c(NC(N)=O)cc1F)CN(c1ncc(C(C)(C)O)cc1Cl)CC2 [Example 1.104]	6.30 to 7.30
Cc1cccc(C)c1-n1nc2c(c1-c1cc(F)c(NC(N)=O)cc1F)CN(c1ccc(F)cc1Cl)CC2 [Example 1.106]	≥ 8.30
Cc1cccc(C)c1-n1nc2c(c1-c1cc(F)c(NC(N)=O)cc1F)CN(c1ccc(Cl)cc1F)CC2 [Example 1.107]	≥ 8.30
Cc1cc(C(N)=O)ccc1-c1c2c(nn1-c1c(C)cccc1C)CCN(c1ncc(Cl)cc1Cl)C2 [Example 1.108]	< 6.30
Cc1cccc(C)c1-n1nc2c(c1-c1ccc(C(N)=O)cc1)CN(c1ncc(Cl)cc1Cl)CC2 [Example 1.109]	6.30 to 7.30
Cc1cccc(C)c1-n1nc2c(c1-c1ccc(C(N)=O)c(F)c1)CN(c1ncc(Cl)cc1Cl)CC2 [Example 1.110]	< 6.30
COc1cc(NC(N)=O)c(F)cc1-c1c2c(nn1-c1c(C)cccc1C)CCN(c1ccc(C(F)(F)F)cc1F)C2 [Example 1.111]	≥ 8.30
Cc1cccc(C)c1-n1nc2c(c1-c1cc(F)c(O)cc1F)CN(c1ncc(Cl)cc1Cl)CC2 [Example 1.112]	≥ 8.30
Cc1cccc(C)c1-n1nc2c(c1-c1cc(F)c(NC(N)=O)cc1F)CN(c1ncc(C(C)C)cc1Cl)CC2 [Example 1.113]	≥ 8.30
COc1cc(NC(N)=O)c(F)cc1-c1c2c(nn1-c1c(C)cccc1C)CCN(c1ccc(Cl)cc1Cl)C2 [Example 1.114]	≥ 8.30
